Data as given in paper PMC6934184, “Selective DNA-PKcs inhibition extends the therapeutic index of localized radiotherapy and chemotherapy” (The Journal of Clinical Investigation, 2019).

Target: T1, HIPK4 (Homo sapiens, UniProt Q8NE63)
T1 construct: purchased Thermo Fisher Scientific (Life Technologies) SelectScreen
Test: SelectScreen Z'LYTE
Format: biochemical
Protocol: The in vitro kinase selectivity of NU5455 was determined using the SelectScreen Broad Assay Panel (Thermo Fisher Scientific) involving activity and binding assays (Supplemental Table 1). […] Class IA PI3Ks were measured using the p85α subunit.
Kinase [ATP] % Assay Kinase [ATP] % Assay Kinase [ATP] % Assay Kinase [ATP] % Assay
DNA-PK Km app 98.3 Z LATS2 n/a 4.7 L KIT D820E n/a 1.3 L GSK3B (GSK3 beta) Km app -2.5 Z
PIK3C3 (hVPS34) Km app 85.9 A PRKCZ (PKC zeta) Km app 4.7 Z GRK1 n/a 1.3 L BMPR2 n/a -2.5 L
PIK3C2B (PI3K-C2 beta) 10 28.9 A FGFR1 Km app 4.7 Z BRSK2 n/a 1.2 L CDC42 BPB (MRCKB) Km app -2.5 Z
SNF1LK2 Km app 26.6 Z MINK1 Km app 4.6 Z NUAK1 (ARK5) Km app 1.2 A AMPK (A2/B2/G2) n/a -2.6 L
HCK Km app 18.0 Z CSF1R (FMS) Km app 4.3 Z CDK9/cyclin K n/a 1.0 L PRKG1 Km app -2.7 Z
NEK2 Km app 17.8 Z CSNK1G3 (CK1 gamma 3) Km app 4.2 Z NUAK2 n/a 1.0 L KIT T670E n/a -2.8 L
ALK Km app 17.3 Z STK32C (YANK3) n/a 4.2 L CDK2/cyclin O n/a 0.9 L ERBB4 (HER4) Km app -2.8 Z
FGFR3 K650M n/a 16.5 L STK22D (TSSK1) Km app 4.2 Z CAMKK2 (CaMKK beta) n/a 0.9 L PLK4 n/a -2.8 L
SIK3 n/a 16.1 L TAOK3 (JIK) n/a 4.2 L FGFR3 Km app 0.9 Z GRK7 Km app -3.0 Z
LYN A Km app 15.2 Z RPS6KA4 (MSK2) Km app 4.2 Z ULK2 n/a 0.9 L MAPKAPK2 Km app -3.1 Z
BMPR1B (ALK6) n/a 14.5 L PTK2B (FAK2) Km app 4.2 Z KIT D816V n/a 0.9 L FGFR4 Km app -3.1 Z
INSRR (IRR) Km app 14.1 Z CLK2 Km app 4.1 Z CAMK1 (CaMK1) 10 0.8 A CASK n/a -3.1 L
PLK2 Km app 14.1 Z STK24 (MST3) Km app 4.1 Z PTK6 (Brk) Km app 0.7 Z GRK5 Km app -3.2 Z
PRKACA (PKA) Km app 14.0 Z CAMK1D (CaMKI delta) Km app 4.1 Z CAMK2B (CaMKII beta) Km app 0.7 Z EGFR (ErbB1) T790M Km app -3.3 Z
EIF2AK2 (PKR) n/a 13.3 L INSR Km app 4.1 Z ACVR1 (ALK2) n/a 0.7 L PAK4 Km app -3.3 Z
PRKX Km app 12.5 Z IRAK1 Km app 4.0 A ABL1 H396P n/a 0.6 L DAPK3 (ZIPK) Km app -3.4 Z
FGR Km app 12.1 Z SRC N1 Km app 3.9 Z MERTK (cMER) A708S n/a 0.6 L RET M918T n/a -3.5 L
CLK1 Km app 11.7 Z SRPK2 Km app 3.9 Z MAPKAPK5 (PRAK) Km app 0.6 Z PRKCQ (PKC theta) Km app -3.7 Z
MARK3 Km app 11.4 Z RPS6KA6 (RSK4) Km app 3.8 Z AKT1 (PKB alpha) Km app 0.5 Z CAMKK1 (CAMKKA) n/a -3.8 L
PDGFRB (PDGFR beta) Km app 11.0 Z GRK6 Km app 3.7 Z NTRK3 (TRKC) Km app 0.4 Z FLT3 D835Y Km app -3.9 Z
PRKCN (PKD3) Km app 10.7 Z PKN1 (PRK1) Km app 3.6 Z ZAP70 Km app 0.3 Z ROCK2 Km app -4.1 Z
STK16 (PKL12) n/a 10.5 L MAP3K8 (COT) 100 3.5 Z CSNK1A1 (CK1 alpha 1) Km app 0.3 Z CHUK (IKK alpha) Km app -4.2 A
FES (FPS) Km app 10.4 Z FLT4 (VEGFR3) Km app 3.5 Z MYLK (MLCK) n/a 0.2 L AXL Km app -4.2 Z
ABL1 Km app 10.4 Z GRK4 Km app 3.5 Z MKNK2 (MNK2) n/a 0.2 L PIM2 Km app -4.3 Z
MUSK Km app 10.3 Z FRK (PTK5) Km app 3.4 Z AMPK (A1/B1/G3) n/a 0.2 L PAK1 Km app -4.4 Z
MAPK1 (ERK2) Km app 10.1 Z FYN A n/a 3.3 L MAP3K2 (MEKK2) n/a 0.1 L BMPR1A (ALK3) n/a -4.4 L
BRAF 100 9.9 Z CDK1/cyclin A2 n/a 3.3 L CDK8/cyclin C n/a 0.1 L STK4 (MST1) Km app -4.4 Z
IGF1R Km app 9.7 Z KIT V559D T670I n/a 3.1 L MARK2 Km app 0.1 Z PRKCH (PKC eta) Km app -4.6 Z
MAPK14 (p38 alpha) Km app 9.7 Z SPHK2 10 3.1 A ICK n/a 0.0 L SGKL (SGK3) Km app -4.6 Z
LCK Km app 9.6 Z FGFR3 G697C n/a 3.1 L FGFR2 Km app 0.0 Z PI4KB (PI4K beta) Km app -4.7 A
MAPK11 (p38 beta) Km app 9.5 Z RIPK2 n/a 3.1 L AKT2 (PKB beta) Km app 0.0 Z PRKCE (PKC epsilon) Km app -4.9 Z
SRC Km app 9.5 Z PAK6 Km app 3.0 Z EPHB2 Km app -0.1 Z PHKG1 Km app -5.0 Z
CHEK1 (CHK1) Km app 9.3 Z LYN B Km app 3.0 Z TGFBR2 n/a -0.1 L PDGFRA D842V Km app -5.0 Z
CAMK2D (CaMKII delta) Km app 9.3 Z DAPK2 n/a 2.9 L TEK (Tie2) Km app -0.1 Z PRKG2 (PKG2) Km app -5.1 Z
PLK1 Km app 9.2 Z EPHA4 Km app 2.9 Z AURKA (Aurora A) Km app -0.1 Z TYRO3 (RSE) Km app -5.1 Z
RET Y791F Km app 9.2 Z PIK3CG (p110 gamma) Km app 2.9 A KIT D816H n/a -0.2 L TAOK2 (TAO1) Km app -5.1 Z
FLT3 Km app 9.1 Z HIPK1 (Myak) Km app 2.8 Z KIT N822K n/a -0.2 L EPHB4 Km app -5.3 Z
MAPK10 (JNK3) 100 9.0 Z ADRBK2 (GRK3) Km app 2.8 Z PRKACG (PRKAC gamma) n/a -0.2 L AURKC (Aurora C) Km app -5.4 Z
CSNK2A2 (CK2 alpha 2) Km app 8.7 Z STK17B (DRAK2) n/a 2.7 L TEK (TIE2) Y1108F n/a -0.3 L JAK1 Km app -5.7 Z […]

T1 sequence (Q8NE63 whole entry): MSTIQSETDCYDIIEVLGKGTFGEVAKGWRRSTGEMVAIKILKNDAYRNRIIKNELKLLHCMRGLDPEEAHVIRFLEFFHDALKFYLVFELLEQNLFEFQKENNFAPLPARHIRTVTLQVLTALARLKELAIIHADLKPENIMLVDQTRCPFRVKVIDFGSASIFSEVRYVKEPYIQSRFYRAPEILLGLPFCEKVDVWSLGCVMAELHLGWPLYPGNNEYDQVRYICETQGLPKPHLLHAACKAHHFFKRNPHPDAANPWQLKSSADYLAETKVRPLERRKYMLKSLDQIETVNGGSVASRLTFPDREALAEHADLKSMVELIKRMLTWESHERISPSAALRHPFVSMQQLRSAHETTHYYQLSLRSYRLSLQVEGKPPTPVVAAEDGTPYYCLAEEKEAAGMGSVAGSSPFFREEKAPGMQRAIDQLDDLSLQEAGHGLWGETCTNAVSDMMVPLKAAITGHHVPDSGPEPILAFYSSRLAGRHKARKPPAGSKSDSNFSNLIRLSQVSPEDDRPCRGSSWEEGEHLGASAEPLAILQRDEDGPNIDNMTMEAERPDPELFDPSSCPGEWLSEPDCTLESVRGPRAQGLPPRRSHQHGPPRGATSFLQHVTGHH

With `CN(C(=O)CN1CCOCC1)c1ccc2sc3c(-c4cccc5c(=O)cc(N6CC7CCC(C6)O7)oc45)cccc3c2c1` [NU5455] the inhibition at 1 µM was 0.9%.
